Reference: patent US20050080076A1 (Xanodyne Pharmacal, Inc., priority 2003, published 2005)

Key:
Dopamine D4.2 = biological target: T1, Dopamine D4.2 (Homo sapiens, UniProt P21917, DEL271-302); experiment: Receptor binding, Dopamine D4.2
T1 sequence (P21917 with tags, fused parts or gaps DEL271-302): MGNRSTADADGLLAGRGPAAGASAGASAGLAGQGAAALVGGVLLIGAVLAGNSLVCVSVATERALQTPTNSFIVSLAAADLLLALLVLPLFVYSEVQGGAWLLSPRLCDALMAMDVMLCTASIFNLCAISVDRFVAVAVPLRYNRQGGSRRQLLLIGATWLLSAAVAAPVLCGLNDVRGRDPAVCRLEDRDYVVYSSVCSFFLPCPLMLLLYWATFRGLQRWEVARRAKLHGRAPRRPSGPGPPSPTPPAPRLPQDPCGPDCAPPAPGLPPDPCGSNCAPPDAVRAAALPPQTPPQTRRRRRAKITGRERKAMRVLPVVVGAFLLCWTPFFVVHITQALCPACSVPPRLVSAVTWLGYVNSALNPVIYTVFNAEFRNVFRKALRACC
Protocol: (§1) Receptor-ligand binding studies were performed as known to one skilled in the art. Compounds evaluated were LMP, the parent compound, the NDM LMP metabolite of LMP, and the sulfoxide metabolite of LMP. These studies verified receptor binding and affinity by the parent compound, as well as identified other potential receptors for the parent compound and its metabolites, and identified and verified receptors and receptor affinity for the metabolites.
(§2) Dopamine receptor affinity included binding to D1, D2, D3, D4, and D5 receptors. Serotonin receptor affinity included binding to 5-HT1A, 5-HT2A, 5-HT2B, 5-HT2, 5-HT5A, 5-HT6, and 5-HT7 receptors. Alpha adrenergic receptor affinity included binding to α1A, α1B, α1C, α2A, α2B, and α2C receptors. Muscarinic receptor affinity included binding to M1, M2, M3, M4, and M5 receptors. Binding to the histamine H1 receptor, the calcium ion channel receptor, and the sodium ion channel receptor were also evaluated. In each of the tables, the following abbreviations are used: LMP indicates the parent compound levomepromazine. NDM LMP indicates the N-desmethyl (N-desmethyl) metabolite. Sulfoxide indicates the sulfoxide metabolite. […] Ki (the inhibition constants of binding) indicate binding affinity.

α1 adrenergic receptors = experiment: Receptor affinity summary, α1 adrenergic receptors; type: binding; conditions: for Relative Affinity: α1-Adrenergic; for binding to all α1 adrenergic receptors (in words): α1A, α1B, and α1C
Protocol: as §1, §2

Calcium Channel = experiment: Receptor binding, Calcium Channel
Protocol: as §1, §2

Adrenergic α1B = biological target: T2, Adrenergic α1B (Homo sapiens, UniProt P35368); experiment: Receptor binding, Adrenergic α1B
T2 sequence (P35368 1-520): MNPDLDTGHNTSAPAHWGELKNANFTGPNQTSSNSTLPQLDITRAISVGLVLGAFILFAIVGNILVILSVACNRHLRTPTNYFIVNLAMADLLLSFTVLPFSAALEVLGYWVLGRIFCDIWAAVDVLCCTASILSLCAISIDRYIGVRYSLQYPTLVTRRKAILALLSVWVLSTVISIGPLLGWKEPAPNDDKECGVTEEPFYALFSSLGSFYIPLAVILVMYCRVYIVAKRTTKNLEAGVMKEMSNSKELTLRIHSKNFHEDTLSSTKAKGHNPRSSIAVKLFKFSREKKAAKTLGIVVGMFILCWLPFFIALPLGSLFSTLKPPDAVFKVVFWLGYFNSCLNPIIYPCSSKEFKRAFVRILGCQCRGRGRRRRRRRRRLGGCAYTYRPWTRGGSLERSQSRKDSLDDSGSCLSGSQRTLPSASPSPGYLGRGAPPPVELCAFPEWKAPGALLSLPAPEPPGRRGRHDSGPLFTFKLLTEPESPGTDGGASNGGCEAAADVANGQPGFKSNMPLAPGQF
Protocol: as §1, §2

Histamine H1 = Histamine H1 (Homo sapiens, UniProt P35367); experiment: Receptor binding, Histamine H1; conditions: for Relative Affinity: Histamine; for Ki: Histamine H1
Protocol: as §1, §2

Muscarinic M1 = biological target: T3, Muscarinic M1 (Homo sapiens, UniProt P11229); experiment: Receptor binding, Muscarinic M1
T3 sequence (P11229 1-460): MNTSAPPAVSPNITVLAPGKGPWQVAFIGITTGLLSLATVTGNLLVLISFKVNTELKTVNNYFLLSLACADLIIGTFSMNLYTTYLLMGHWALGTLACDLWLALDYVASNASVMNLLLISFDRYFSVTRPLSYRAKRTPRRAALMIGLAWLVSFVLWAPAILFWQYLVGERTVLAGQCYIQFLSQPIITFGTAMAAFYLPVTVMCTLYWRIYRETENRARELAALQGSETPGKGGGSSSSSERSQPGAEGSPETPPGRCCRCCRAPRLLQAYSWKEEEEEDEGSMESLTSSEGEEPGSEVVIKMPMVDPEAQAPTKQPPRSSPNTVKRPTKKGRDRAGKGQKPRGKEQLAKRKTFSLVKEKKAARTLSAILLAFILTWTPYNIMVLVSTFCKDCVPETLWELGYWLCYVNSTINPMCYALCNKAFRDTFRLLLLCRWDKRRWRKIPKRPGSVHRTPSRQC
Protocol: as §1, §2

Serotonin 5-HT6 = Serotonin 5-HT6 (Homo sapiens, UniProt P50406); experiment: Receptor binding, Serotonin 5-HT6
Protocol: as §1, §2

Serotonin 5-HT7 = Serotonin 5-HT7 (Homo sapiens, UniProt P34969); experiment: Receptor binding, Serotonin 5-HT7
Protocol: as §1, §2

muscarinic receptors = experiment: Receptor affinity summary, muscarinic receptors; type: binding; conditions: for Relative Affinity: Muscarinic; for binding affinity to muscarinic receptors (in words): all receptors
Protocol: as §1, §2

Serotonin 5-HT5A = Serotonin 5-HT5A (Homo sapiens, UniProt P47898); experiment: Receptor binding, Serotonin 5-HT5A
Protocol: as §1, §2

Muscarinic M5 = biological target: T4, Muscarinic M5 (Homo sapiens, UniProt P08912); experiment: Receptor binding, Muscarinic M5
T4 sequence (P08912 1-532): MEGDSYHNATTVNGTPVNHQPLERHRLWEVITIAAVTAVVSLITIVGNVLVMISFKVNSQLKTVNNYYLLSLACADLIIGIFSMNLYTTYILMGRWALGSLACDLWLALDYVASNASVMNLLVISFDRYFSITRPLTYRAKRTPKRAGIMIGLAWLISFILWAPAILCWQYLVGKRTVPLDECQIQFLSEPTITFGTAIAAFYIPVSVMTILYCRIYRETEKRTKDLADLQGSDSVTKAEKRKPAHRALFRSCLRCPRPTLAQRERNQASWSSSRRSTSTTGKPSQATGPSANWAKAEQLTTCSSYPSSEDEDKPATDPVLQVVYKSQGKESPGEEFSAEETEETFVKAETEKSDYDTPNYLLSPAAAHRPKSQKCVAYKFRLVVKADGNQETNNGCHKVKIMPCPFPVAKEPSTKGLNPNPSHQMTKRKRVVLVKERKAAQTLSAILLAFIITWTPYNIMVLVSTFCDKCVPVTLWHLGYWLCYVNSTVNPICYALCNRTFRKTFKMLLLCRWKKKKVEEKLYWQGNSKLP
Protocol: as §1, §2

Serotonin 5-HT2A = Serotonin 5-HT2A (Homo sapiens, UniProt P28223); experiment: Receptor binding, Serotonin 5-HT2A
Protocol: as §1, §2

Sequence of Serotonin 5-HT7 (P34969 whole entry): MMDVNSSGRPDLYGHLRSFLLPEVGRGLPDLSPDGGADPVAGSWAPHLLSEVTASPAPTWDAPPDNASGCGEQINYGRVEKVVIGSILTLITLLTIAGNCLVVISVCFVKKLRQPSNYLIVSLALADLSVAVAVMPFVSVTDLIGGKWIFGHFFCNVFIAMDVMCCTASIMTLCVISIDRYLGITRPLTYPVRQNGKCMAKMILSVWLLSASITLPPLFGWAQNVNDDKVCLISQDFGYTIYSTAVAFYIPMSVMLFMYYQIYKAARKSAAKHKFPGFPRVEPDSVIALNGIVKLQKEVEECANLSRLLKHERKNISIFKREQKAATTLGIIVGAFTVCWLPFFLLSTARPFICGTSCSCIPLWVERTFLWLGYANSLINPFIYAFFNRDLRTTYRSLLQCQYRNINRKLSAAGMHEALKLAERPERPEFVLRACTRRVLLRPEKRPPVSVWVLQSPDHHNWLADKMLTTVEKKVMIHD
Sequence of Serotonin 5-HT6 (P50406 whole entry): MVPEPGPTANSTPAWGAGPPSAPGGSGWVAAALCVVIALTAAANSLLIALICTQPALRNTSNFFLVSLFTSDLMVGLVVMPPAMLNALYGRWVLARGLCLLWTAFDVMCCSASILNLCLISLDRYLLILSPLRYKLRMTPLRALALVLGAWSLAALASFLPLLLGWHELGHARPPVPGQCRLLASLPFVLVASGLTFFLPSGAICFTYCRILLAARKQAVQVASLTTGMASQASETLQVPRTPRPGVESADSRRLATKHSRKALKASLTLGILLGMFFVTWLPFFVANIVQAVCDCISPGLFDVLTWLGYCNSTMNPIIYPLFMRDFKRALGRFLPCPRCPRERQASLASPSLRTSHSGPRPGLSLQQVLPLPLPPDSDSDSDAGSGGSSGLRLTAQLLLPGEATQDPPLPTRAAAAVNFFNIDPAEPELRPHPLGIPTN
Sequence of Serotonin 5-HT2A (P28223 whole entry): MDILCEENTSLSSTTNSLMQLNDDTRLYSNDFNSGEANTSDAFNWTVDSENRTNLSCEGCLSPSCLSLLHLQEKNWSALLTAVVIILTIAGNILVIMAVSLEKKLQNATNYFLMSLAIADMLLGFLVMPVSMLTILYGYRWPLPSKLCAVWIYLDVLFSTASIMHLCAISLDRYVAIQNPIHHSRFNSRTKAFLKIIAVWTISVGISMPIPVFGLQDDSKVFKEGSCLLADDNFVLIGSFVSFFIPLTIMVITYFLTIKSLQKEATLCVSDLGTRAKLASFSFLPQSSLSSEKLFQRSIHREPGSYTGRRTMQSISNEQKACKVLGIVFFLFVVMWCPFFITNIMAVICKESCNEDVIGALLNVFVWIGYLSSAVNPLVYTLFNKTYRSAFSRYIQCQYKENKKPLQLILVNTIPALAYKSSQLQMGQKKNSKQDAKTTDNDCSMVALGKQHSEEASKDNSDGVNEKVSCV
Sequence of Histamine H1 (P35367 whole entry): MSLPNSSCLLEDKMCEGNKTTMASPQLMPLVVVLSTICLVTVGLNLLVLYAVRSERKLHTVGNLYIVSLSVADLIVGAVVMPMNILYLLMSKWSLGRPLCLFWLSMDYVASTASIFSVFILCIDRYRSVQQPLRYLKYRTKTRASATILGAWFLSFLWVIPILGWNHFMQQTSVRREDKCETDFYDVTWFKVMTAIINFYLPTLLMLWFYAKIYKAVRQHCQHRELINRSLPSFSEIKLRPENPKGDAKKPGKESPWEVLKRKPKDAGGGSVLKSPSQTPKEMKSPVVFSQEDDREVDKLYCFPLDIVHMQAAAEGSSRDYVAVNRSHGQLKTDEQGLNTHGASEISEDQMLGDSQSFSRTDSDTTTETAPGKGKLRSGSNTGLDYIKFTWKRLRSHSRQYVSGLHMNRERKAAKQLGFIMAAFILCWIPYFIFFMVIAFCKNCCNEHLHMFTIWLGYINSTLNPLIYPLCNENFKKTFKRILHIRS
Sequence of Serotonin 5-HT5A (P47898 whole entry): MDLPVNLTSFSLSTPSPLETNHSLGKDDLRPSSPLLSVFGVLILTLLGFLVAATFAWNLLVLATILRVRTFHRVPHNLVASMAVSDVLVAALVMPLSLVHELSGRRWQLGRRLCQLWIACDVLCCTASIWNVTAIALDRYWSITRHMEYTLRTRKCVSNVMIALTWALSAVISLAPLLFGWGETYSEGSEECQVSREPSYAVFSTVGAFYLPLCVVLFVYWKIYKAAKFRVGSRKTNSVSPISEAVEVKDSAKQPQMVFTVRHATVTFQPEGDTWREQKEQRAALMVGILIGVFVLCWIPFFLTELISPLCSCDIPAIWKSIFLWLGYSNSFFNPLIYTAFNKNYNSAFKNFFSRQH

Row | SMILES | Ki (Dopamine D4.2) | Relative Affinity (α1 adrenergic receptors) | binding to all α1 adrenergic receptors (in words) (α1 adrenergic receptors) | Ki (Calcium Channel) | Relative Affinity (Calcium Channel) | Ki (Adrenergic α1B) | Relative Affinity (Histamine H1) | Ki (Histamine H1) | Ki (Muscarinic M1) | Ki (Serotonin 5-HT6) | Ki (Serotonin 5-HT7) | Relative Affinity (muscarinic receptors) | binding affinity to muscarinic receptors (in words) (muscarinic receptors) | Ki (Serotonin 5-HT5A) | Ki (Muscarinic M5) | Ki (Serotonin 5-HT2A)
1 | COc1ccc2c(c1)N(C[C@H](C)CN(C)C)c1ccccc1[S+]2[O-] (some centres unmarked) [Sulfoxide, levomepromazine sulfoxide] | > 10000 nM | LMP = NDM LMP ≧ sulfoxide | high binding | 9090 nM | NDM LMP > LMP > sulfoxide | 80 nM | LMP = NDM LMP = sulfoxide | 6.1 nM | 726 nM | > 10000 nM | > 10000 nM | LMP = NDM LMP > sulfoxide | low affinity | > 10000 nM | 481 nM | 410 nM
2 | COc1ccc2c(c1)N(C[C@H](C)CN(C)C)c1ccccc1S2 [LMP, Levomepromazine] | 769 nM | – | high binding | 407 nM | – | 2 nM | – | 2 nM | 43 nM | 82 nM | 24 nM | – | moderate-to-high affinities | 136 nM | 61 nM | < 4 nM
3 | CNCC(C)CN1c2ccccc2Sc2ccc(OC)cc21 (stereo not drawn) [NDM LMP, R(+) 2-methoxy-10-2-methyl-3-monomethylaminopropyl phenothiazine] | 3110 nM | LMP = NDM LMP ≧ sulfoxide | high binding | 49 nM | NDM LMP > LMP > sulfoxide | 2 nM | LMP = NDM LMP = sulfoxide | 2.1 nM | 54 nM | 98 nM | 18 nM | LMP = NDM LMP > sulfoxide | moderate-to-high affinities | 152 nM | 60 nM | < 4 nM
